Legend:
Assay in all cases: Histone peptide microarray
Format in all cases: binding, human
[1] = system: AIRE (PP); conditions: sheet "Array Heatmap", total n = 4; for Array Heatmap value (peptide array signal): AIRE (PP), each array performed twice
Outline: (§1)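 Steps: express and purify GST-tagged PHD reader; incubate 0.5 μM protein on a peptide microarray (293 histone peptides, single or combined PTMs) following an optimized protocol; average signal across 4 replicates.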

[2] = system: PHF13; conditions: sheet "Array Heatmap", total n = 4; for Array Heatmap value (peptide array signal): PHF13, each array performed twice
Outline: as §1

[3] = system: ING4; conditions: sheet "Array Heatmap", total n = 4; for Array Heatmap value (peptide array signal): ING4, each array performed twice
Outline: as §1

[4] = system: ING1; conditions: sheet "Array Heatmap", total n = 4; for Array Heatmap value (peptide array signal): ING1, each array performed twice
Outline: as §1

[5] = system: MLL5; conditions: sheet "Array Heatmap", total n = 4; for Array Heatmap value (peptide array signal): MLL5, each array performed twice
Outline: as §1

[6] = system: SP140L; conditions: sheet "Array Heatmap", total n = 4; for Array Heatmap value (peptide array signal): SP140L, each array performed twice
Outline: as §1

[7] = system: CHD5 (PPCC); conditions: sheet "Array Heatmap", total n = 4; for Array Heatmap value (peptide array signal): CHD5 (PPCC), each array performed twice
Outline: as §1

[8] = system: RAG2; conditions: sheet "Array Heatmap", total n = 4; for Array Heatmap value (peptide array signal): RAG2, each array performed twice
Outline: as §1

[9] = system: CHD5 (PCC); conditions: sheet "Array Heatmap", total n = 4; for Array Heatmap value (peptide array signal): CHD5 (PCC), each array performed twice
Outline: as §1

[10] = system: MORC3 (CW); conditions: sheet "Array Heatmap", total n = 4; for Array Heatmap value (peptide array signal): MORC3 (CW), each array performed twice
Outline: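 Purified PHD finger domains fused to GST are screened against 293 synthetic histone peptides bearing one or several post-translational modifications. The protein is used at 0.5 μM, and the signal from four replicate arrays is averaged, with standard deviation given.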

[11] = system: KDM5B (1); conditions: sheet "Array Heatmap", total n = 4; for Array Heatmap value (peptide array signal): KDM5B (1), each array performed twice
Outline: as §1

[12] = system: KDM5B (3); conditions: sheet "Array Heatmap", total n = 4; for Array Heatmap value (peptide array signal): KDM5B (3), each array performed twice
Outline: as §1

[13] = system: KDM7A; conditions: sheet "Array Heatmap", total n = 4; for Array Heatmap value (peptide array signal): KDM7A, each array performed twice
Outline: as §1

[14] = system: ING2; conditions: sheet "Array Heatmap", total n = 4; for Array Heatmap value (peptide array signal): ING2, each array performed twice
Outline: as §1

[15] = system: PHF21A; conditions: sheet "Array Heatmap", total n = 4; for Array Heatmap value (peptide array signal): PHF21A, each array performed twice
Outline: as §1

[16] = system: TAF3; conditions: sheet "Array Heatmap", total n = 4; for Array Heatmap value (peptide array signal): TAF3, each array performed twice
Outline: as §1

[17] = system: TRIM66 (PB); conditions: sheet "Array Heatmap", total n = 4; for Array Heatmap value (peptide array signal): TRIM66 (PB), each array performed twice
Outline: as §1

[18] = system: PHF2; conditions: sheet "Array Heatmap", total n = 4; for Array Heatmap value (peptide array signal): PHF2, each array performed twice
Outline: as §1

[19] = system: ING5; conditions: sheet "Array Heatmap", total n = 4; for Array Heatmap value (peptide array signal): ING5, each array performed twice
Outline: as §1

[20] = system: PHF23; conditions: sheet "Array Heatmap", total n = 4; for Array Heatmap value (peptide array signal): PHF23, each array performed twice
Outline: as §1

[21] = system: DIDO1; conditions: sheet "Array Heatmap", total n = 4; for Array Heatmap value (peptide array signal): DIDO1, each array performed twice
Outline: as §1

[22] = system: KDM5A (3); conditions: sheet "Array Heatmap", total n = 4; for Array Heatmap value (peptide array signal): KDM5A (3), each array performed twice
Outline: as §1

[23] = system: DPF2 (PPC2W2); conditions: sheet "Array Heatmap", total n = 4; for Array Heatmap value (peptide array signal): DPF2 (PPC2W2), each array performed twice
Outline: as §1

[24] = system: CHD4 (PPCC); conditions: sheet "Array Heatmap", total n = 4; for Array Heatmap value (peptide array signal): CHD4 (PPCC), each array performed twice
Outline: as §1

[25] = system: KDM4C (TTP); conditions: sheet "Array Heatmap", total n = 4; for Array Heatmap value (peptide array signal): KDM4C (TTP), each array performed twice
Outline: as §1

[26] = system: BAZ2B; conditions: sheet "Array Heatmap", total n = 4; for Array Heatmap value (peptide array signal): BAZ2B, each array performed twice
Outline: as §1

[27] = system: KDM5A (1); conditions: sheet "Array Heatmap", total n = 4; for Array Heatmap value (peptide array signal): KDM5A (1), each array performed twice
Outline: as §1

[28] = system: BPTF (PB); conditions: sheet "Array Heatmap", total n = 4; for Array Heatmap value (peptide array signal): BPTF (PB), each array performed twice
Outline: as §1

[29] = system: PHRF1 (RP); conditions: sheet "Array Heatmap", total n = 4; for Array Heatmap value (peptide array signal): PHRF1 (RP), each array performed twice
Outline: as §1

[30] = system: PHF8; conditions: sheet "Array Heatmap", total n = 4; for Array Heatmap value (peptide array signal): PHF8, each array performed twice
Outline: as §1

[31] = system: ING3; conditions: sheet "Array Heatmap", total n = 4; for Array Heatmap value (peptide array signal): ING3, each array performed twice
Outline: as §1

[32] = GST-tagged reader, histone peptide array

H3.3K18ac + K23ac + K27ac: H3.3 15-34
Array Heatmap signal, AIRE (PP) [1, 32]: 0.3882
Array Heatmap signal, PHF13 [2, 32]: 0.5394
Array Heatmap signal, ING4 [3, 32]: 0.3863
Array Heatmap signal, ING1 [4, 32]: 0.4856
Array Heatmap signal, MLL5 [5, 32]: 0.5276
Array Heatmap signal, SP140L [6, 32]: 0.3146
Array Heatmap signal, CHD5 (PPCC) [7, 32]: 0.4663
Array Heatmap signal, RAG2 [8, 32]: 0.2141
Array Heatmap signal, CHD5 (PCC) [9, 32]: 0.7415
Array Heatmap signal, MORC3 (CW) [10, 32]: 0.3178
Array Heatmap signal, KDM5B (1) [11, 32]: 0.6049
Array Heatmap signal, KDM5B (3) [12, 32]: 0.4033
Array Heatmap signal, KDM7A [13, 32]: 0.2948
Array Heatmap signal, ING2 [14, 32]: 0.5898
Array Heatmap signal, PHF21A [15, 32]: 0.4029
Array Heatmap signal, TAF3 [16, 32]: 0.2149
Array Heatmap signal, TRIM66 (PB) [17, 32]: 0.509
Array Heatmap signal, PHF2 [18, 32]: 0.5078
Array Heatmap signal, ING5 [19, 32]: 0.2999
Array Heatmap signal, PHF23 [20, 32]: 0.5184
Array Heatmap signal, DIDO1 [21, 32]: 0.6174
Array Heatmap signal, KDM5A (3) [22, 32]: 0.3827
Array Heatmap signal, DPF2 (PPC2W2) [23, 32]: 0.5923
Array Heatmap signal, CHD4 (PPCC) [24, 32]: 0.4939
Array Heatmap signal, KDM4C (TTP) [25, 32]: 0.4047
Array Heatmap signal, BAZ2B [26, 32]: 0.3976
Array Heatmap signal, KDM5A (1) [27, 32]: 0.4013
Array Heatmap signal, BPTF (PB) [28, 32]: 0.2983
Array Heatmap signal, PHRF1 (RP) [29, 32]: 0.3802
Array Heatmap signal, PHF8 [30, 32]: 0.3485
Array Heatmap signal, ING3 [31, 32]: 0.4284

H3.3K27bhb (15-34): H3.3 15-34
Array Heatmap value (peptide array signal) [1]: 0.4047
Array Heatmap value (peptide array signal) [2]: 0.6011
Array Heatmap value (peptide array signal) [3]: 0.4357
Array Heatmap value (peptide array signal) [4]: 0.5173
Array Heatmap value (peptide array signal) [5]: 0.5648
Array Heatmap value (peptide array signal) [6]: 0.3378
Array Heatmap value (peptide array signal) [7]: 0.5245
Array Heatmap value (peptide array signal) [8]: 0.2325
Array Heatmap value (peptide array signal) [9]: 0.7166
Array Heatmap value (peptide array signal) [10]: 0.3496
Array Heatmap value (peptide array signal) [11]: 0.6279
Array Heatmap value (peptide array signal) [12]: 0.4143
Array Heatmap value (peptide array signal) [13]: 0.312
Array Heatmap value (peptide array signal) [14]: 0.6144
Array Heatmap value (peptide array signal) [15]: 0.4386
Array Heatmap value (peptide array signal) [16]: 0.2621
Array Heatmap value (peptide array signal) [17]: 0.6188
Array Heatmap value (peptide array signal) [18]: 0.5233
Array Heatmap value (peptide array signal) [19]: 0.34
Array Heatmap value (peptide array signal) [20]: 0.5306
Array Heatmap value (peptide array signal) [21]: 0.6388
Array Heatmap value (peptide array signal) [22]: 0.404
Array Heatmap value (peptide array signal) [23]: 0.6281
Array Heatmap value (peptide array signal) [24]: 0.5447
Array Heatmap value (peptide array signal) [25]: 0.4386
Array Heatmap value (peptide array signal) [26]: 0.4313
Array Heatmap value (peptide array signal) [27]: 0.4361
Array Heatmap value (peptide array signal) [28]: 0.3432
Array Heatmap value (peptide array signal) [29]: 0.4098
Array Heatmap value (peptide array signal) [30]: 0.363
Array Heatmap value (peptide array signal) [31]: 0.4499

H3.3K27hxo (15-34): H3.3 15-34
Array Heatmap value (peptide array signal) [1]: 0.3038
Array Heatmap value (peptide array signal) [2]: 0.4541
Array Heatmap value (peptide array signal) [3]: 0.3406
Array Heatmap value (peptide array signal) [4]: 0.4956
Array Heatmap value (peptide array signal) [5]: 0.4892
Array Heatmap value (peptide array signal) [6]: 0.2976
Array Heatmap value (peptide array signal) [7]: 0.3985
Array Heatmap value (peptide array signal) [8]: 0.1931
Array Heatmap value (peptide array signal) [9]: 0.595
Array Heatmap value (peptide array signal) [10]: 0.2947
Array Heatmap value (peptide array signal) [11]: 0.5964
Array Heatmap value (peptide array signal) [12]: 0.3693
Array Heatmap value (peptide array signal) [13]: 0.2316
Array Heatmap value (peptide array signal) [14]: 0.5803
Array Heatmap value (peptide array signal) [15]: 0.3552
Array Heatmap value (peptide array signal) [16]: 0.2046
Array Heatmap value (peptide array signal) [17]: 0.4904
Array Heatmap value (peptide array signal) [18]: 0.4925
Array Heatmap value (peptide array signal) [19]: 0.2604
Array Heatmap value (peptide array signal) [20]: 0.4877
Array Heatmap value (peptide array signal) [21]: 0.6054
Array Heatmap value (peptide array signal) [22]: 0.3948
Array Heatmap value (peptide array signal) [23]: 0.5523
Array Heatmap value (peptide array signal) [24]: 0.4698
Array Heatmap value (peptide array signal) [25]: 0.3245
Array Heatmap value (peptide array signal) [26]: 0.3359
Array Heatmap value (peptide array signal) [27]: 0.3701
Array Heatmap value (peptide array signal) [28]: 0.2696
Array Heatmap value (peptide array signal) [29]: 0.3528
Array Heatmap value (peptide array signal) [30]: 0.2775
Array Heatmap value (peptide array signal) [31]: 0.3628

Reference: paper PMC6979384, “Characterization of the plant homeodomain (PHD) reader family for their histone tail interactions” (Epigenetics & Chromatin, 2020)
